Measurements from US9926275B2 (priority 2013, dated 2018).
Like-named read-outs stand apart in the source and are kept apart here.

What was measured:
CB1 receptor [1] = molecular target: T1, CB1 receptor (Homo sapiens, UniProt P21554); assay: DiscoveRx HitHunter cAMP XS+ assay in cAMP Hunter cell line, allosteric modulation of CP55,940 response; assay type: cell-based; conditions: for Emax: read-out: cAMP activity ECMax (%)
Experimental: Once it was established that the cells were healthy and growing normally, cells were passaged from flasks using cell dissociation reagent buffer and seeded into white walled clear bottom 384-well microplates for compound profiling. For profiling, cells were seeded at a density of 10000 cells per well in a total volume of 20 μL and were allowed to adhere and recover overnight prior to compound addition. Cells were treated the following day using the protocols shown below. cAMP modulation was determined using the DiscoveRx HitHunter cAMP XS+ assay.
Media was aspirated from cells and replaced with 10 μL 1:1 HBSS/Hepes: cAMP XS+ Ab reagent. Agonist (CP55,940) dose curves were performed to determine the EC20 value for the testing with the compounds of the present technology. 5 μL of 4× agonist was added to each well with an equal concentration of vehicle present. EC20 agonist concentration was determined directly from agonist dose curve.
(§1) For allosteric determination, cells were preincubated with compound followed by agonist challenge at the EC20 concentration of the agonist. 5 μL of 4× compound was added to cells and incubated at 37° C. for 30 minutes. 5 μL of 4× EC20 agonist was added to cells and incubated at 37° C. for 30 minutes.
Signal Detection: After appropriate compound incubation, assay signal was generated through incubation with 20 μL cAMP XS+ED/CL lysis cocktail for one hour followed by incubation with 20 μL cAMP XS+EA reagent for three hours at room temperature. Microplates were read following signal generation with a PerkinElmer Envision™ instrument for chemiluminescent signal detection.
(§2) Data Analysis: Dose curves were plotted using GraphPad Prism or Activity Base. The percentage activity is calculated using the following formula: % Activity=100%×(1−(mean RLU of test sample−mean RLU of MAX control)/(mean RLU of vehicle control [EC20 for PAM]−mean RLU of MAXcontrol).
(§3) Agonist (CP55,940) dose curves were performed for the CNR1 PathHunter and cAMP Hunter cell lines. […] The cAMP assay was performed in the presence of 20 μM forskolin (EC80).
(§4) In Vitro Evaluation: The in vitro evaluation of the covalent allosteric modulators was performed using as described previously.

CB1 receptor [2] = molecular target: T1, CB1 receptor; assay: β-arrestin recruitment in CNR1 PathHunter cell line, allosteric modulation of CP55,940 response; assay type: cell-based; conditions: for Emax: read-out: β-arrestin activity EMax (%)
Experimental: as §1, §2, §3, §4

[3] = Table 1, preincubation with compound, then CP55,940 challenge, 20 μM forskolin
[4] = Table 1, preincubation with compound, then CP55,940 challenge, 20 μM forskolin, read-out: cAMP EC50
[5] = Table 1, CP55,940 as agonist, read-out: β-arrestin EC50
[6] = Table 2, covalent allosteric modulators, read-out: cAMP activity EC50 (nm)
[7] = Table 2, covalent allosteric modulators
[8] = Table 2, covalent allosteric modulators, read-out: β-arrestin activity EC50 (nm)

T1 sequence (P21554 whole entry): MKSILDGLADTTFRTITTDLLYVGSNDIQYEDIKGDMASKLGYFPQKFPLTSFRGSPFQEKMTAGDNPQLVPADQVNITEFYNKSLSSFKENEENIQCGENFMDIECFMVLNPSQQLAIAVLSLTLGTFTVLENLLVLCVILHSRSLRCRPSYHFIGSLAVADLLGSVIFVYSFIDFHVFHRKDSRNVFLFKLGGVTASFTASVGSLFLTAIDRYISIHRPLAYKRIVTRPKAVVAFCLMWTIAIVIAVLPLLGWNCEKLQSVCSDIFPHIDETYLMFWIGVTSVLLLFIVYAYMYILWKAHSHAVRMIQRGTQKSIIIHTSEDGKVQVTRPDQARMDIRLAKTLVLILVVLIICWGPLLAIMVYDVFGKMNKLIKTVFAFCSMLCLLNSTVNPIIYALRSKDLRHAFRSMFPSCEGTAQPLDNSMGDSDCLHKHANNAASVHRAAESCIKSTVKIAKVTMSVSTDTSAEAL

SMILES | cAMP % inhibition (CB1 receptor [1]; [3]) | EC50 (CB1 receptor [1]; [4]) | β-arrestin % inhibition (CB1 receptor [2]; Table 1, CP55,940 as agonist) | EC50 (CB1 receptor [2]; [5]) | also measured
O=C(Nc1cccc(-c2cccc(N3CCCC3)n2)c1)Nc1ccccc1F [Compound 10u, 1-(2-Fluorophenyl)-3-(3-(6-(pyrrolidin-1-yl)pyridin-2-yl)phenyl)urea] | 79% | 330 nM | 107% | 99 nM | –
O=C(Nc1ccc(Cl)cc1)Nc1cccc(-c2cccc(N3CCNCC3)n2)c1 [Compound 67b, 1-(4-Chlorophenyl)-3-(3-(6-(piperazin-1-yl)pyridin-2-yl)phenyl)urea] | 113% | 274 nM | 110% | 25 nM | –
CCc1c(C(=O)NCCc2ccc(N3CCCCC3)cc2)[nH]c2ccc(N=[N+]=[N-])cc12 [GAT206] | – | – | – | – | EC50 (CB1 receptor [1]; [6]): 391 nM; Emax (CB1 receptor [1]; [7]): 89%; EC50 (CB1 receptor [2]; [8]): 28 nM; Emax (CB1 receptor [2]; [7]): 106%
O=C(Nc1cccc(-c2cccc(N3CCCC3)n2)c1)NC1CCCCC1 [Compound 10z, 1-Cyclohexyl-3-(3-(6-(pyrrolidin-1-yl)pyridin-2-yl)phenyl)urea] | 78% | 659 nM | 136% | 333 ± 30 nM | –
O=C(Nc1ccc(Cl)cc1)Nc1cccc(-c2ccc(N3CCCC3)nc2)c1 [Compound 61, 1-(4-Chlorophenyl)-3-(3-(6-(pyrrolidin-1-yl)pyridin-3-yl)phenyl)urea] | 6% | > 10000 nM | 105% | 880 nM | –
Cc1cc(Cl)ccc1OC(=O)Nc1cccc(-c2cccc(N3CCCC3)n2)c1 [Compound 13c, 4-Chloro-2-methylphenyl (3-(6-(pyrrolidin-1-yl)pyridin-2-yl)phenyl)carbamate] | 24% | 3050 nM | 39% | 3070 nM | –
O=C(Nc1ccc(I)cc1)Nc1cccc(-c2cccc(N3CCCC3)n2)c1 [Compound 10b, 1-(4-Iodophenyl)-3-(3-(6-(pyrrolidin-1-yl)pyridin-2-yl)phenyl)urea] | 126% | 223 nM | 133% | 27 nM | –
O=C(Nc1cccc(-c2cccc(N3CCCC3)n2)c1)N1CCc2ccccc2C1 [Compound 10y, N-(3-(6-(Pyrrolidin-1-yl)pyridin-2-yl)phenyl)-3,4-dihydroisoquinoline-2(1H)-carboxamide] | 2.55% | – | 50% | 5340 nM | EC50 (CB1 receptor [1]; read-out: cAMP EC50): > 10000 nM
Cc1ccc(NC(=O)Nc2cccc(-c3cccc(N4CCCC4)n3)c2)cc1 [Compound 10n, 1-(3-(6-(Pyrrolidin-1-yl)pyridin-2-yl)phenyl)-3-(p-tolyl)urea] | – | – | – | – | cAMP % inhibition (CB1 receptor [1]): 122%; EC50 (CB1 receptor [1]; cAMP EC50 nM): 764 nM; β-arrestin % inhibition (CB1 receptor [2]): 127%; EC50 (CB1 receptor [2]; β-arrestin EC50 nM): 119 nM
O=C(Nc1cccc(-c2cccc(N3CCCC3)n2)c1)Nc1ccccc1C(F)(F)F [Compound 10g, 1-(3-(6-(Pyrrolidin-1-yl)pyridin-2-yl)phenyl)-3-(2-(trifluoromethyl)phenyl)urea] | 119% | 1160 nM | 123% | 2090 nM | –
CN(C(=O)N(C)c1cccc(-c2cccc(N3CCCC3)n2)c1)c1ccc(Cl)cc1 [Compound 28, 1-(4-Chlorophenyl)-1,3-dimethyl-3-(3-(6-(pyrrolidin-1-yl)pyridin-2-yl)phenyl)urea] | 39% | 1670 nM | 62% | 2330 nM | –
Cc1cc(Cl)ccc1NC(=O)Nc1cccc(-c2cccc(N3CCCC3)n2)c1 [Compound 10s, 1-(4-Chloro-2-methylphenyl)-3-(3-(6-(pyrrolidin-1-yl)pyridin-2-yl)phenyl)urea] | 18% | > 10000 nM | 109% | 209 nM | –
O=C(Nc1cccc(-c2cccc(N3CCCC3)n2)c1)Nc1ccc(Cl)c(C#CCCOC2CCCCO2)c1 (stereo not shown) [Compound 21b, 1-(4-Chloro-3-(4-((tetrahydro-2H-pyran-2-yl)oxy)but-1-yn-1-yl)phenyl)-3-(3-(6-(pyrrolidin-1-yl)pyridin-2-yl)phenyl)urea] | 22% | > 10000 nM | 111% | 208 nM | –
O=C(Nc1ccc(Cl)cc1)Nc1cccc(-c2cccc(N3CCCC3)n2)c1 [Compound 10a, 1-(4-Chlorophenyl)-3-(3-(6-(pyrrolidin-1-yl)pyridin-2-yl)phenyl)urea] | – | – | – | – | cAMP % inhibition (CB1 receptor [1]): 108%; β-arrestin % inhibition (CB1 receptor [2]): 109%
O=C(Nc1ccc(Cl)cc1)Nc1cccc(-c2cccc(N3CCOCC3)n2)c1 [Compound 67a, 1-(4-Chlorophenyl)-3-(3-(6-morpholinopyridin-2-yl)phenyl)urea] | 88% | 564 nM | 111% | 124 nM | –
CN(C(=O)Nc1ccc(Cl)cc1)c1cccc(-c2cccc(N3CCCC3)n2)c1 [Compound 27, 3-(4-Chlorophenyl)-1-methyl-1-(3-(6-(pyrrolidin-1-yl)pyridin-2-yl)phenyl)urea] | 31% | 527 nM | 109% | 384 nM | –
COc1cccc(NC(=O)Nc2cccc(-c3cccc(N4CCCC4)n3)c2)c1 [Compound 10i, 1-(3-Methoxyphenyl)-3-(3-(6-(pyrrolidin-1-yl)pyridin-2-yl)phenyl)urea] | 92% | 1790 nM | 109% | 497 nM | –
CC(C)c1ccccc1NC(=O)Nc1cccc(-c2cccc(N3CCCC3)n2)c1 [Compound 10v, 1-(2-Isopropylphenyl)-3-(3-(6-(pyrrolidin-1-yl)pyridin-2-yl)phenyl)urea] | – | – | – | – | cAMP % inhibition (CB1 receptor [1]): 70%; EC50 (CB1 receptor [1]; cAMP EC50 nM): 4810 nM; β-arrestin % inhibition (CB1 receptor [2]): 66%; EC50 (CB1 receptor [2]; β-arrestin EC50 nM): 4200 nM
O=C(Nc1cccc(-c2cccc(N3CCCC3)n2)c1)Nc1cccc(C(F)(F)F)c1 [Compound 10f, 1-(3-(6-(Pyrrolidin-1-yl)pyridin-2-yl)phenyl)-3-(3-(trifluoromethyl)phenyl)urea] | 116% | 242 nM | 129% | 220 nM | –
O=C(Nc1ccc(C(=O)c2ccccc2)cc1)Nc1cccc(-c2cccc(N3CCCC3)n2)c1 [GAT300] | – | – | – | – | EC50 (CB1 receptor [1]; [6]): 169 nM; Emax (CB1 receptor [1]; [7]): 99.6%; EC50 (CB1 receptor [2]; [8]): 28.4 nM; Emax (CB1 receptor [2]; [7]): 106%
N#C/N=C(/Nc1ccc(Cl)cc1)Nc1cccc(-c2cccc(N3CCCC3)n2)c1 [Compound 35, (Z)-1-(4-Chlorophenyl)-2-cyano-3-(3-(6-(pyrrolidin-1-yl)pyridin-2-yl)phenyl)guanidine] | 29% | 3340 nM | 69% | 3060 nM | –
O=C(Nc1ccc(C(F)(F)F)cc1)Nc1cccc(-c2cccc(N3CCCC3)n2)c1 [Compound 10e, 1-(3-(6-(Pyrrolidin-1-yl)pyridin-2-yl)phenyl)-3-(4-(trifluoromethyl)phenyl)urea] | 161% | 218 nM | 128% | 51 nM | –
O=C(Nc1ccc(Oc2ccccc2)cc1)Nc1cccc(-c2cccc(N3CCCC3)n2)c1 [Compound 10k, 1-(4-Phenoxyphenyl)-3-(3-(6-(pyrrolidin-1-yl)pyridin-2-yl)phenyl)urea] | 91% | 750 nM | 123% | 115 nM | –
O=C(Nc1cccc(-c2cccc(N3CCCC3)n2)c1)Nc1ccc(Cl)c(CCCCOC2CCCCO2)c1 (stereo not shown) [Compound 23b, 1-(4-Chloro-3-(4-((tetrahydro-2H-pyran-2-yl)oxy)butyl)phenyl)-3-(3-(6-(pyrrolidin-1-yl)pyridin-2-yl)phenyl)urea] | 55% | 354 nM | 121% | 771 nM | –
